Assay results: ChEMBL document CHEMBL4177741, “NOTA analogue: A first dithiocarbamate inhibitor of metallo-β-lactamases” (Bioorg Med Chem Lett, 2018)
Converted amounts (≈) assume the structure as drawn. The source made the active and inactive calls. The calls are words filed in the database; no cut-off is given here.

Columns and labels:
Citrobacter freundii [1] = conditions: 64 ug/ml
Description: Inhibition of NDM1 in Citrobacter freundii clinical isolates assessed as potentiation of meropenem-induced antibacterial activity by measuring meropenem MIC at 64 ug/ml incubated for 16 to 18 hrs by broth microdilution method

HeLa [2] = assay: Cytotoxicity in human HeLa cells assessed as inhibition of cell growth at 128 ug/ml incubated for 24 hrs by calcein AM and propidium iodide staining based fluorescence microscopy
Proteus mirabilis [3] = assay: (§1) Inhibition of NDM1 in Proteus mirabilis clinical isolates assessed as potentiation of meropenem-induced antibacterial activity by measuring meropenem MIC at 32 ug/ml incubated for 16 to 18 hrs by broth microdilution method
Proteus mirabilis [4] = conditions: 64 ug/ml
Description: (§2) Inhibition of NDM1 in Proteus mirabilis clinical isolates assessed as potentiation of meropenem-induced antibacterial activity by measuring meropenem MIC at 64 ug/ml incubated for 16 to 18 hrs by broth microdilution method

Proteus mirabilis [5] = assay: as §1; remark: listed apart in the source
Citrobacter freundii [6] = assay: Inhibition of NDM1 in Citrobacter freundii clinical isolates assessed as potentiation of meropenem-induced antibacterial activity by measuring meropenem MIC at 32 ug/ml incubated for 16 to 18 hrs by broth microdilution method
Proteus mirabilis [7] = conditions: 64 ug/ml; remark: listed apart in the source
Description: as §2

Erythrocyte = assay: Hemolytic activity in sheep RBCs at 10000 ug/ml incubated for 1 hr; assay type: ADME, cell-based, Ovis aries
Escherichia coli [8] = assay: Effect on cell growth of Escherichia coli expressing NDM1 assessed as cell growth level; assay type: organism-based
Escherichia coli [9] = assay: Potentiation of meropenem-induced antibacterial activity in Escherichia coli expressing NDM1 assessed as meropenem inhibition zone incubated for 16 to 18 hrs by CLSI protocol based disc diffusion method (reference value: 10.76 mm); assay type: functional
Escherichia coli [10] = assay: Effect on cell growth of Escherichia coli expressing NDM1 incubated for 16 to 18 hrs by CLSI protocol based method; assay type: organism-based
HeLa [11] = assay: Cytotoxicity in human HeLa cells assessed as inhibition of cell growth at 64 ug/ml incubated for 24 hrs by calcein AM and propidium iodide staining based fluorescence microscopy
[12] = Cytotoxicity in human HeLa cells assessed as inhibition of cell growth at 1000 ug/ml incubated for 24 hrs by CCK8 assay; assay type: cell-based; conditions: read-out: GI
[13] = target: Beta-lactamase NDM-1 (Escherichia coli) (UniProt E5KIY2)
Description: Inhibition of NDM1 in Escherichia coli assessed as potentiation of meropenem-induced antibacterial activity by measuring meropenem inhibition zone at 0.1mol/L incubated for 16 to 18 hrs by CLSI protocol based disc diffusion method

HeLa [14] = assay: Cytotoxicity in human HeLa cells assessed as inhibition of cell growth at 0.1% incubated for 24 hrs by calcein AM and propidium iodide staining based fluorescence microscopy; assay type: functional
[15] = target: Beta-lactamase NDM-1 (Escherichia coli) (UniProt E5KIY2); assay: Inhibition of NDM1 in Escherichia coli assessed as potentiation of 0.125 ug/ml meropenem-induced antibacterial activity by measuring bacterial count at 32 ug/ml incubated for 3 hrs by time-dependent killing assay (reference value: […])
[16] = target: Beta-lactamase NDM-1 (Escherichia coli) (UniProt E5KIY2); remark: listed apart in the source
Description: Inhibition of NDM1 in Escherichia coli clinical isolates assessed as potentiation of meropenem-induced antibacterial activity by measuring meropenem MIC at 32 ug/ml incubated for 16 to 18 hrs by broth microdilution method (Rvb = 320 ug/ml)

[17] = target: Beta-lactamase NDM-1 (Escherichia coli) (UniProt E5KIY2); remark: listed apart in the source
Description: Inhibition of NDM1 in Escherichia coli clinical isolates assessed as potentiation of meropenem-induced antibacterial activity by measuring meropenem MIC at 32 ug/ml incubated for 16 to 18 hrs by broth microdilution method (Rvb = 80 ug/ml)

Beta-lactamase NDM-1 [18] = target: T1, Beta-lactamase NDM-1 (Escherichia coli, UniProt E5KIY2)
Description: Non-competitive inhibition of NDM1 in Escherichia coli BL21 (DE3) using MEPM substrate incubated for 15 mins by UV spectroscopy based L-B plot

Proteus mirabilis [19] = assay: as §1; remark: listed apart in the source
[20] = target: Metallo-beta-lactamase type 2 (Klebsiella pneumoniae) (UniProt C7C422)
[21] = target: Metallo-beta-lactamase type 2 (Klebsiella pneumoniae) (UniProt C7C422); remark: listed apart in the source
Description: Inhibition of NDM1 in Klebsiella pneumoniae clinical isolates assessed as potentiation of meropenem-induced antibacterial activity by measuring meropenem MIC at 32 ug/ml incubated for 16 to 18 hrs by broth microdilution method (Rvb = 80 ug/ml)

[22] = target: Beta-lactamase NDM-1 (Escherichia coli) (UniProt E5KIY2); remark: listed apart in the source
Beta-lactamase NDM-1 [23] = target: T1, Beta-lactamase NDM-1; remark: listed apart in the source
Description: Inhibition of NDM1 in Escherichia coli BL21 (DE3) using MEPM substrate incubated for 15 mins by UV spectroscopy

S=C([S-])N1CCN(C(=S)[S-])CCN(C(=S)[S-])CC1.[Na+].[Na+].[Na+]
MIC (Citrobacter freundii [1]): 0.5 µg/mL
Activity (HeLa [2]): Non-Toxic
MIC (Proteus mirabilis [3]): 4 µg/mL
MIC (Proteus mirabilis [4]): 4 µg/mL
MIC (Proteus mirabilis [5]): > 16 µg/mL
MIC (Citrobacter freundii [6]): 4 µg/mL
MIC (Proteus mirabilis [7]): > 16 µg/mL
Activity (Erythrocyte): Non-Toxic
Activity (Escherichia coli [8]): 90%
inhibition zone (IZ) (Escherichia coli [9]): 15.9 mm
MIC (Escherichia coli [10]): > 128 µg/mL
Activity (HeLa [11]): Non-Toxic
inhibition at 24 h, 1000 ug/ml [12]: 20%

O=C(O)CN(CCN(CC(=O)O)CC(=O)O)CC(=O)O
IZ [13]: 21.7 mm

CC(C)(C)CC(C)(C)c1ccc(OCCOCCOCCOCCOCCOCCOCCO)cc1
Activity (HeLa [14]): Active

O=C(O)CN1CCN(CC(=O)O)CCN(CC(=O)O)CC1
Activity [15]: 10000 to 1e+06 CFU/mL
MIC [16]: 0.125 µg/mL (≈ 0.412 µM)
MIC (Proteus mirabilis [3]): 0.5 µg/mL
MIC [17]: 0.125 µg/mL (≈ 0.412 µM)
MIC (Proteus mirabilis [5]): 2 µg/mL
Ki (Beta-lactamase NDM-1 [18]): 5110 nM
MIC (Proteus mirabilis [19]): 0.5 µg/mL
MIC [20]: 1 µg/mL (≈ 3.3 µM)
MIC (Citrobacter freundii [6]): 0.06 µg/mL
MIC [21]: 2 µg/mL (≈ 6.59 µM)
MIC [22]: < 0.03 µg/mL
Activity (Escherichia coli [8]): 90%
MIC (Escherichia coli [10]): > 128 µg/mL
IC50 (Beta-lactamase NDM-1 [23]): 110 nM
